Data reported in patent US20180303807A1, “ANDROGEN RECEPTOR LIGANDS” (DUKE UNIVERSITY, priority 2015, published 2018).

What was measured:
Assay type in all cases: cell-based
CV1 cells = experiment: Toxicity of test compound in the CV1 reporter gene assay (Renilla-Luc)
Protocol: Reporter Gene Assay (IC50 determination, Table 2, B1-B3). CV1 cells were seeded into 96-well cell culture plates and transfected with Lipofectin. For AR transcriptional assays, the DNA mixture consisted of pcDNA-AR, MMTV-Luc (androgen responsive reporter gene), and Renilla-Luc (for assessing transfection efficiency and toxicity). Following overnight incubation, cells were induced with hormone (0.1 nM R1881 (synthetic AR agonist) plus increasing concentrations of test compound) for 24 hrs. Cells were lysed and luciferase activity was quantified using Dual Luciferase Reagent (DLR). IC50 determination was assessed using GraphPad Prism software.

AR [1] = experiment: Real-time PCR of AR target gene transcription in LNCaP-AR (AR overexpressing) cells, CRPC model; design: key to B5 = Relative antagonist activity (plus 0.1 nM R1881) of test compounds (20 μM) in AR overexpressing LNCaP cells (NKX3.1 AR target gene) / B7 = Relative antagonist activity (plus 0.1 nM R1881) of test compounds (20 μM) in AR overexpressing LNCaP cells (PSA AR target gene): a score of 1 indicates higher antagonist efficacy (highly desired activity) than benchmark compound enzalutamide; a score of 2 indicates equal antagonist efficacy to enzalutamide (desirable); a score of 3 indicates antagonist efficacy between enzalutamide and bicalutamide (less desirable activity); a score of 4 indicates antagonist efficacy equal to bicalutamide (liability); a score of 5 indicates antagonist efficacy worse than bicalutamide (liability); key to B4 = Relative agonist activity (no R1881) of test compounds (20 μM) in AR overexpressing LNCaP cells (NKX3.1 AR target gene) / B6 Relative agonist activity (no R1881) of test compounds (20 μM) in AR overexpressing LNCaP cells (PSA AR target gene): a score of 1 indicates less agonism (highly desired activity) than benchmark compound enzalutamide; a score of 2 indicates equal agonism to enzalutamide (desirable); a score of 3 indicates agonism between enzalutamide and bicalutamide (less desirable activity); a score of 4 indicates equal agonism to bicalutamide (liability); a score of 5 indicates higher agonism than bicalutamide (liability); details: for B7 = Relative antagonist activity (plus 0.1 nM R1881) of test compounds (20 μM) in AR overexpressing LNCaP cells (PSA AR target gene): plus 0.1 nM R1881, PSA gene; for B7 = Relative antagonist activity (plus 0.1 nM R1881) of test compounds (20 μM) in AR overexpressing LNCaP cells (PSA AR target gene) / B4 = Relative agonist activity (no R1881) of test compounds (20 μM) in AR overexpressing LNCaP cells (NKX3.1 AR target gene) / B6 Relative agonist activity (no R1881) of test compounds (20 μM) in AR overexpressing LNCaP cells (PSA AR target gene) / B5 = Relative antagonist activity (plus 0.1 nM R1881) of test compounds (20 μM) in AR overexpressing LNCaP cells (NKX3.1 AR target gene): score vs enzalutamide/bicalutamide; for B4 = Relative agonist activity (no R1881) of test compounds (20 μM) in AR overexpressing LNCaP cells (NKX3.1 AR target gene): no R1881, NKX3.1 gene; for B5 = Relative antagonist activity (plus 0.1 nM R1881) of test compounds (20 μM) in AR overexpressing LNCaP cells (NKX3.1 AR target gene): plus 0.1 nM R1881, NKX3.1 gene
Protocol: Real-Time PCR (CRPC model of AR overexpressing prostate cancer cells, Table 2, B4-B7). LNCaP-AR (AR overexpressing cells) cells were seeded in 12-well plates in RPMI 1640 (8% charcoal-stripped fetal calf serum (CFS)). […] AR target gene transcription (PSA, NKX3.1, FKBP5) was assessed by realtime PCR.
For B4-B7, scoring system is based on the relative AR target gene agonist/antagonist activity of test compounds when compared to benchmark compounds enzalutamide or bicalutamide. […] The lack of agonist activity is desirable for therapies intended to treat CRPC. For B4 and B6, a score of 1 indicates less agonism (highly desired activity) than benchmark compound enzalutamide, a score of 2 indicates equal agonism to enzalutamide (desirable), a score of 3 indicates agonism between enzalutamide and bicalutamide (less desirable activity), a score of 4 indicates equal agonism to bicalutamide (liability), and a score of 5 indicates higher agonism than bicalutamide (liability). For B5 and B7 a score of 1 indicates higher antagonist efficacy (highly desired activity) than benchmark compound enzalutamide, a score of 2 indicates equal antagonist efficacy to enzalutamide (desirable), a score of 3 indicates antagonist efficacy between enzalutamide and bicalutamide (less desirable activity), a score of 4 indicates antagonist efficacy equal to bicalutamide (liability), and a score of 5 indicates antagonist efficacy worse than bicalutamide (liability) For B9, Compounds that degrade AR (greater than 50% degradation at 10 μM) are indicated.

AR [2] = target: T1, AR (Homo sapiens, UniProt P10275); experiment: Reporter gene assay, AR transcriptional (MMTV-Luc) in CV1 cells; details: pcDNA-AR + MMTV-Luc, 0.1 nM R1881 plus test compound, 24 hrs, read-out: B1 = AR transcriptional IC50 (μM) in CV1 cells
T1 construct: expressed in transfected cells; host or cells: CV1 cells
T1 sequence (P10275 1-920): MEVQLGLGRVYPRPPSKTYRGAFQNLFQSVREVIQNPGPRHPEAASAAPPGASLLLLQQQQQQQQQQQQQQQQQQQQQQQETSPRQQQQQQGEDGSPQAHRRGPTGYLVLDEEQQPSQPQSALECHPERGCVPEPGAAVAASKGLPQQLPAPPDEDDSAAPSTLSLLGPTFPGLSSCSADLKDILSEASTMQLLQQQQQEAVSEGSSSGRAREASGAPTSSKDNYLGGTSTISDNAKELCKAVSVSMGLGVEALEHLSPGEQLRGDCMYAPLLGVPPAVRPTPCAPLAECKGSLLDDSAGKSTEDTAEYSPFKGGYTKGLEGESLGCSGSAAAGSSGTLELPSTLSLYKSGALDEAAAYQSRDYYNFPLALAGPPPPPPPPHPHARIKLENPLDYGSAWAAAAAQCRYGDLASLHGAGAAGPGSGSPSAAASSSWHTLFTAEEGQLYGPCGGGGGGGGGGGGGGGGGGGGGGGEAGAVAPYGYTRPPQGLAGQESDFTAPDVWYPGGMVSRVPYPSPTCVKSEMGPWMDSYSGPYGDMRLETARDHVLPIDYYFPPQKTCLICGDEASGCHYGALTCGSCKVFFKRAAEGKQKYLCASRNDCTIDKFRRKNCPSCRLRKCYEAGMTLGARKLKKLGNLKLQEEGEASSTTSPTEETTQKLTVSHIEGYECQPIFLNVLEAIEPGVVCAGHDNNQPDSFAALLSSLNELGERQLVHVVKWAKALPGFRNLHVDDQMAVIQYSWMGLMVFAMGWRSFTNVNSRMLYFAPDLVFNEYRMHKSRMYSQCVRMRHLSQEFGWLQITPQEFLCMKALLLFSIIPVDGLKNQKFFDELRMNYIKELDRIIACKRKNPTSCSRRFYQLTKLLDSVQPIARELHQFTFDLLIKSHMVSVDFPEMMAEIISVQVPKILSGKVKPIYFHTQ
How it was run: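 CV1 cells transiently co-transfected with human AR, MMTV-Luc reporter and Renilla-Luc (transfection efficiency and toxicity read-out), then stimulated 24 h with 0.1 nM R1881 plus increasing test compound concentrations. Firefly and Renilla luciferase quantified by dual-luciferase assay; IC50 derived from concentration-response.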

SMILES | B2 = % Toxicity of test compound (20 μM) (CV1 cells) [%] | B3 = % Toxicity of test compound (60 μM) (CV1 cells) [%] | B7 = Relative antagonist activity (plus 0.1 nM R1881) of test compounds (20 μM) in AR overexpressing LNCaP cells (PSA AR target gene) (AR [1]) | IC50 (AR [2]) [µM] | B4 = Relative agonist activity (no R1881) of test compounds (20 μM) in AR overexpressing LNCaP cells (NKX3.1 AR target gene) (AR [1]) | B6 Relative agonist activity (no R1881) of test compounds (20 μM) in AR overexpressing LNCaP cells (PSA AR target gene) (AR [1]) | B5 = Relative antagonist activity (plus 0.1 nM R1881) of test compounds (20 μM) in AR overexpressing LNCaP cells (NKX3.1 AR target gene) (AR [1]) | agonist activity in AR overexpressing LNCaP cells (model of CRPC) (AR [1]; benchmark compounds, AR overexpressing LNCaP cells)
CC1(C)CC(=O)C2=C(C1)Nc1ccc3ncccc3c1C2c1ccc([N+](=O)[O-])cc1 (stereo not drawn) [Compound A2, 9,9-dimethyl-12-(4-nitrophenyl)-8,9,10,12-tetrahydrobenzo[b][4,7]phenanthrolin-11(7H)-one] | 0 | 51 | 1 | 0.2 |  |  |  | 
CC1(C)CC(=O)C2=C(C1)Nc1ccc3ccccc3c1C2c1ccc(C#N)cc1 (stereo not drawn) [Compound A3] | 0 | 24 | 1 | 1.6 | 1 | 1 | 1 | 
CC1(C)CC(=O)C2=C(C1)Nc1ccc3ccccc3c1C2c1ccc(Cl)c([N+](=O)[O-])c1 (stereo not drawn) [Compound A6] | 0 | 0 | 1 | 3.8 | 1 | 1 | 1 | 
O=C1CCCC2=C1C(c1ccc(Cl)cc1Cl)c1c(ccc3ccccc13)N2 (stereo not drawn) [Compound A7] | 75 | 91 | 1 | 3.8 | 1 | 1 | 2 | 
Cn1c(=O)n(C)c2cc(C3C4=C(CC(C)(C)CC4=O)Nc4ccc5ccccc5c43)ccc21 (stereo not drawn) [Compound A8] | 0 | 0 | 1 | 5.3 | 2 | 1 | 1 | 
CC1(C)CC(=O)C2=C(C1)Nc1ccc3ccccc3c1C2c1cccc(C(F)(F)F)c1 (stereo not drawn) [Compound A9] | 0 | 0 | 1 | 5.5 | 1 | 1 | 1 | 
CC1(C)CC(=O)C2=C(C1)Nc1ccc3ccccc3c1C2c1ccncc1 (stereo not drawn) [Compound A12] | 0 | 94 | 3 | 8.6 | 1 | 1 | 2 | 
O=C1CCCC2=C1C(c1ccc([N+](=O)[O-])cc1)c1c(ccc3ncccc13)N2 (stereo not drawn) [Compound A18] | 0 | 22 | 2 | > 10 |  | 1 |  | 
N#Cc1ccc(C2C3=C(CCCC3=O)Nc3ccc4ccccc4c32)cc1 (stereo not drawn) [Compound A22] | 0 | 66 | 3 | > 10 |  | 3 |  | 
CNC(=O)c1ccc(N2C(=S)N(c3ccc(C#N)c(C(F)(F)F)c3)C(=O)C2(C)C)cc1F [Enzalutamide, enzalutamide, reference compound] |  |  |  |  |  |  |  | does not possess agonist activity
